Results: PubChem BioAssay AID328 (DTP/NCI, 2004)
Several values for one entry are separate records, joined by “and”; a condition that tells them apart may be missing. Identical values can stand only once. Toxic doses and inconclusive results are not listed.

Test system: BDF1 mice, P388 leukemia ip, median survival T/C
Experiment: NCI In Vivo Anticancer Drug Screen. Data for tumor model P388 Leukemia (intraperitoneal) in B6D2F1 (BDF1) mice
Details: endpoint: median survival time, higher = longer survival
In short: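 Antitumour effect was judged in vivo: survival in drug-treated mice, normalised to that of vehicle-dosed controls, gives the reported T/C.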

[1] = dose: 100.0 mg/kg/injection, schedule: Q01DX009 (ip), vehicle: water
[2] = dose: 200.0 mg/kg/injection, schedule: Q01DX009 (ip), vehicle: water
[3] = dose: 25.0 mg/kg/injection, schedule: Q04DX003 (ip), vehicle: saline with Tween-80
[4] = dose: 50.0 mg/kg/injection, schedule: Q04DX003 (ip), vehicle: saline with Tween-80
[5] = dose: 100.0 mg/kg/injection, schedule: Q04DX003 (ip), vehicle: water
[6] = dose: 200.0 mg/kg/injection, schedule: Q04DX003 (ip), vehicle: water
[7] = dose: 400.0 mg/kg/injection, schedule: Q04DX003 (ip), vehicle: water
[8] = dose: 50.0 mg/kg/injection, schedule: Q01DX009 (ip), vehicle: saline with Tween-80
[9] = dose: 100.0 mg/kg/injection, schedule: Q01DX009 (ip), vehicle: saline with Tween-80
[10] = dose: 100.0 mg/kg/injection, schedule: Q04DX003 (ip), vehicle: Klucel (hydroxypropylcellulose) (HPC)
[11] = dose: 200.0 mg/kg/injection, schedule: Q04DX003 (ip), vehicle: Klucel (hydroxypropylcellulose) (HPC)
[12] = dose: 400.0 mg/kg/injection, schedule: Q04DX003 (ip), vehicle: Klucel (hydroxypropylcellulose) (HPC)
[13] = dose: 25.0 mg/kg/injection, schedule: Q01DX009 (ip), vehicle: saline with Tween-80
[14] = dose: 200.0 mg/kg/injection, schedule: Q01DX009 (ip), vehicle: saline with Tween-80

In the case of `O=C(O)CC(NC(=O)CP(=O)(O)O)C(=O)O` (stereo not drawn), the T/C (dose: 50.0 mg/kg/injection, schedule: Q01DX009 (ip), vehicle: saline) is reported as 117 % of control, the T/C (dose: 100.0 mg/kg/injection, schedule: Q01DX009 (ip), vehicle: saline) is reported as 118 % of control and the T/C [1] is reported as 100 % of control. For the same compound, the T/C (dose: 180.0 mg/kg/injection, schedule: Q04DX003 (ip), vehicle: saline) was 118 % of control, the T/C (dose: 200.0 mg/kg/injection, schedule: Q01DX009 (ip), vehicle: saline) was 157 % of control and the T/C [2] was 109 % of control. The T/C (dose: 300.0 mg/kg/injection, schedule: Q01DX009 (ip), vehicle: saline) was 109 % of control, the T/C (dose: 300.0 mg/kg/injection, schedule: Q01DX009 (ip), vehicle: water) was 106 % of control and the T/C (dose: 300.0 mg/kg/injection, schedule: Q04DX003 (ip), vehicle: saline) was 109 % of control. The T/C (dose: 400.0 mg/kg/injection, schedule: Q01DX009 (ip), vehicle: saline) was 96 % of control, the T/C (dose: 500.0 mg/kg/injection, schedule: Q04DX003 (ip), vehicle: saline) was 122 % of control and the T/C (dose: 600.0 mg/kg/injection, schedule: Q04DX003 (ip), vehicle: saline) was 118 % of control. The T/C (dose: 750.0 mg/kg/injection, schedule: Q04DX003 (ip), vehicle: saline) was 163 % of control, the T/C (dose: 833.0 mg/kg/injection, schedule: Q04DX003 (ip), vehicle: saline) was 100 % of control and the T/C (dose: 1000.0 mg/kg/injection, schedule: Q04DX003 (ip), vehicle: saline) was 85 % of control. The T/C (dose: 1500.0 mg/kg/injection, schedule: Q04DX003 (ip), vehicle: saline) was 64 % of control.
For `Oc1ccc2ccccc2c1/C=N\Sc1ccc(Br)cc1`, the T/C [3] was 103 % of control, the T/C [4] was 100 % of control and the T/C (dose: 100.0 mg/kg/injection, schedule: Q04DX003 (ip), vehicle: saline with Tween-80) was 112 % of control.
With `COc1ccc(C=O)cc1OCc1ccccc1` the T/C (dose: 6.25 mg/kg/injection, schedule: Q01DX009 (ip), vehicle: water) was 113 % of control, the T/C (dose: 12.5 mg/kg/injection, schedule: Q01DX009 (ip), vehicle: water) was 104 % of control and the T/C (dose: 25.0 mg/kg/injection, schedule: Q01DX009 (ip), vehicle: water) was 109 % of control. For the same compound, the T/C (dose: 50.0 mg/kg/injection, schedule: Q01DX009 (ip), vehicle: water) was 101 % of control and 116 % of control, the T/C (dose: 50.0 mg/kg/injection, schedule: Q04DX003 (ip), vehicle: water) was 104 % of control and the T/C [1] was 95 % of control and 97 % of control. The T/C [5] was 102 % of control and 117 % of control, the T/C [2] was 116 % of control and the T/C [6] was 102 % of control and 114 % of control. For the same compound, the T/C [7] was 117 % of control.
`Cc1cc(N(C)C)c2ccc3c(ccc4c(N(C)C)cc(C)nc43)c2n1` was tested, and the T/C [8] was 121 % of control and the T/C [9] was 123 % of control.
For `COC(=O)c1cc(Cl)c(C(=O)OC)cc1Cl`, the T/C [10] was 104 % of control, the T/C [11] was 96 % of control and the T/C [12] was 100 % of control.
For `CCOC(=O)C(c1cccc(OC)c1)C1(C(=O)OCC)CC2(CCC1=O)OCCO2` (stereo not drawn), the T/C (dose: 50.0 mg/kg/injection, schedule: Q01DX001 (ip), vehicle: saline sonified) was 104 % of control, the T/C (dose: 100.0 mg/kg/injection, schedule: Q01DX001 (ip), vehicle: saline sonified) was 100 % of control and the T/C (dose: 200.0 mg/kg/injection, schedule: Q01DX001 (ip), vehicle: saline sonified) was 100 % of control.
With `CN(C)c1ccc(C(O)C(N)=O)cc1` (stereo not drawn) the T/C (dose: 6.25 mg/kg/injection, schedule: Q01DX009 (ip), vehicle: saline) was 90 % of control and the T/C (dose: 25.0 mg/kg/injection, schedule: Q01DX009 (ip), vehicle: saline) was 90 % of control.
In the case of `COC(OC)c1cc(S)[nH]c(=O)c1F`, the T/C [10] is reported as 100 % of control, the T/C [11] is reported as 110 % of control and the T/C [12] is reported as 100 % of control.
`O=S(=O)(Nc1cc(S(=O)(=O)c2ccccc2)c(O)c2ccccc12)c1ccccc1` was tested, and the T/C (dose: 75.0 mg/kg/injection, schedule: Q01DX001 (ip), vehicle: saline with Tween-80) was 90 % of control, the T/C (dose: 150.0 mg/kg/injection, schedule: Q01DX001 (ip), vehicle: saline with Tween-80) was 90 % of control and the T/C (dose: 300.0 mg/kg/injection, schedule: Q01DX001 (ip), vehicle: saline with Tween-80) was 100 % of control.
For `C1CSCCSCCCSCCSC1`, the T/C [13] was 98 % of control, the T/C [8] was 102 % of control and the T/C [9] was 118 % of control.
For `CCOC(=O)Cc1csc2nc(-c3ccccc3)nn12`, the T/C [8] was 106 % of control, the T/C [9] was 108 % of control and the T/C [14] was 115 % of control.
For `O=[N+]([O-])c1ccc(N2CCN(CCO)CC2)c2nonc12`, the T/C (dose: 15.0 mg/kg/injection, schedule: Q01DX009 (ip), vehicle: saline with Tween-80) was 100 % of control, the T/C [3] was 97 % of control and the T/C (dose: 30.0 mg/kg/injection, schedule: Q01DX009 (ip), vehicle: saline with Tween-80) was 97 % of control. For the same compound, the T/C [4] was 96 % of control.
With `O=[N+]([O-])C1(CO)COC(c2ccccc2)OC1` (stereo not drawn) the T/C [1] was 109 % of control, the T/C [5] was 95 % of control and the T/C [2] was 86 % of control. The T/C [6] was 100 % of control, the T/C (dose: 400.0 mg/kg/injection, schedule: Q01DX009 (ip), vehicle: water) was 90 % of control and the T/C [7] was 104 % of control.
With `COB(CCCCB(OC)OC)OC` the T/C (dose: 100.0 mg/kg/injection, schedule: Q04DX003 (ip), vehicle: saline sonified) was 90 % of control, the T/C (dose: 200.0 mg/kg/injection, schedule: Q04DX003 (ip), vehicle: saline sonified) was 86 % of control and the T/C (dose: 400.0 mg/kg/injection, schedule: Q04DX003 (ip), vehicle: saline sonified) was 100 % of control.
For `COc1ccc(C2=C/C(=C3/C(=O)C=C(C)OC3=O)SS2)cc1`, the T/C [8] was 90 % of control, the T/C [9] was 92 % of control and the T/C [14] was 97 % of control.
`CC(=O)OC1CC2(O)C(CCC3(C)C(c4ccc(=O)oc4)CCC32O)C2(C)C1=CC(O)C1OC12` (stereo not drawn) was tested, and the T/C (dose: 0.05 mg/kg/injection, schedule: Q01DX010 (ip), vehicle: carboxymethylcellulose (CMC)) was 105 % of control, the T/C (dose: 0.1 mg/kg/injection, schedule: Q01DX010 (ip), vehicle: carboxymethylcellulose (CMC)) was 95 % of control and the T/C (dose: 0.2 mg/kg/injection, schedule: Q01DX010 (ip), vehicle: carboxymethylcellulose (CMC)) was 105 % of control. The T/C (dose: 0.5 mg/kg/injection, schedule: Q01DX010 (ip), vehicle: carboxymethylcellulose (CMC)) was 90 % of control.
In the case of `COc1cccc2c1C(=O)c1c(O)c3c(c(O)c1C2=O)C[C@@](O)(C(=O)CO)C[C@@H]3OC1CC(N(C)C)C(O)C(C)O1` (stereo partly drawn), the T/C (dose: 1.44 mg/kg/injection, schedule: Q04DX003 (ip), vehicle: water) is reported as 170 % of control, the T/C (dose: 2.4 mg/kg/injection, schedule: Q04DX003 (ip), vehicle: water) is reported as 198 % of control and the T/C (dose: 4.0 mg/kg/injection, schedule: Q04DX003 (ip), vehicle: water) is reported as 89 % of control.
For `C=CCCCCCCCCC(=O)NCc1cccnc1`, the T/C [9] was 86 % of control, the T/C [14] was 95 % of control and the T/C (dose: 400.0 mg/kg/injection, schedule: Q01DX009 (ip), vehicle: saline with Tween-80) was 100 % of control.
With `CCCCCCCCCCCCN1CCCC(C)C1` (stereo not drawn) the T/C (dose: 12.5 mg/kg/injection, schedule: Q01DX009 (ip), vehicle: saline with Tween-80) was 114 % of control, the T/C [13] was 109 % of control and the T/C [8] was 98 % of control and 120 % of control.
In the case of `CN(C)C(CC(=O)c1ccccc1)C(=O)O` (stereo not drawn), the T/C (dose: 50.0 mg/kg/injection, schedule: Q04DX003 (ip), vehicle: saline sonified) is reported as 104 % of control.
`COc1cc(NC(=O)CN(CCCl)CCCl)cc(OC)c1OC` was tested, and the T/C (dose: 7.7 mg/kg/injection, schedule: Q04DX003 (ip), vehicle: Klucel (hydroxypropylcellulose) (HPC)) was 107 % of control, the T/C (dose: 30.0 mg/kg/injection, schedule: Q04DX003 (ip), vehicle: Klucel (hydroxypropylcellulose) (HPC)) was 122 % of control and the T/C (dose: 60.0 mg/kg/injection, schedule: Q04DX003 (ip), vehicle: Klucel (hydroxypropylcellulose) (HPC)) was 104 % of control and 114 % of control. For the same compound, the T/C (dose: 90.0 mg/kg/injection, schedule: Q04DX003 (ip), vehicle: Klucel (hydroxypropylcellulose) (HPC)) was 177 % of control, the T/C [11] was 209 % of control and the T/C (dose: 300.0 mg/kg/injection, schedule: Q04DX003 (ip), vehicle: Klucel (hydroxypropylcellulose) (HPC)) was 122 % of control.
With `O=C(Nc1ccccc1C(=O)O)c1cc([N+](=O)[O-])cc([N+](=O)[O-])c1` the T/C [8] was 117 % of control.
